The values that follow are results of earlier work, collected in the CATMoS acute toxicity set (Mansouri et al. 2021).

Structures are written as SMILES. Several values for one entry are separate records, joined by “and”; a condition that tells them apart may be missing. Equal entries are not always repeated.

This data set can be described thus: rat acute oral toxicity. To be noted: in vivo.
`CSC(C)=NOC(=O)N(C)SN(C(C)C)P1(=S)OCCCO1`: the LD50 is 600 mg/kg.

With `CCCCCCCCOC(=O)Oc1ccc([N+](=O)[O-])cc1[N+](=O)[O-]`, the LD50 was 196 mg/kg. Turning to `NC(=S)C1CC=CCC1` (stereo unspecified), the LD50 was 50 mg/kg. Regarding `O=C(Nc1ccccc1)Nc1cnns1`, the LD50 is 5350 mg/kg. `N#CC(=O)c1cccc(Cl)c1Cl`: the LD50 was 50 mg/kg.

As to `c1ccc2c(C(CCN3CCOCC3)CCN3CCOCC3)cccc2c1`, the LD50 was 708 mg/kg. For the compound `CC(=O)N1CCN(c2ccc(OC[C@H]3CO[C@](Cn4ccnc4)(c4ccc(Cl)cc4Cl)O3)cc2)CC1`, the LD50 was 166 mg/kg. As to `C=CC(=O)OCCOC(=O)c1ccc(C(=O)O)cc1C(=O)O`, the LD50 was 3190 mg/kg. As for `OCC(O)CN1CCN(c2ccccc2)CC1` (stereo unspecified), the LD50 was 750 mg/kg. Consider `O=C(O)CN(CCOCCOCCN(CC(=O)O)CC(=O)O)CC(=O)O`, for which the LD50 is 4000 mg/kg and 3590 mg/kg. `CCCCC(CC)CNCC(C)(N)CN(C)CC(CC)CCCC` (stereo unspecified): the LD50 was 1000 mg/kg. For `CCCCCCCCCCCCCCCN`, the LD50 was 660 mg/kg.

As for `CN`, the LD50 is 1600 mg/kg. `CN(C)c1ccc(C=C2C(=O)N=C3c4ccccc4N=CN23)cc1`: the LD50 was 355 mg/kg. Take `CCOP(=S)(OCC)SCn1nc(Br)ccc1=O`: the LD50 was 30 mg/kg. For `NC(=O)C(=O)O`, the median lethal dose (LD50) was 21100 mg/kg. For the compound `CCCc1ccc(O)c(OC)c1`, the LD50 is 2600 mg/kg. Turning to `CCC(C(=O)N1CCCC1C)(c1ccccc1)c1ccccc1` (stereo unspecified), the LD50 is 326 mg/kg.

Take `CC1CC=CC2C3OC3(C)C(C)C3C(Cc4ccccc4)NC(=O)C23OC(=O)OC=CC(C)(O)C1=O` (stereo unspecified): the LD50 is 9.1 mg/kg. Regarding `CCOP(=O)(OCC)SCC(=O)NC(C)(C)C#N`, the LD50 was 3.5 mg/kg. On to `COC(=O)C(c1ccccc1Cl)N1CCc2sccc2C1` (stereo unspecified), for which the LD50 is 1910 mg/kg. With `COC(=O)c1c(Cl)c(Cl)c(C(=O)OC)c(Cl)c1Cl`, the LD50 is 3000 mg/kg.

Turning to `Cc1c(CC(=O)O)c2ccccc2n1C(=O)c1ccccc1`, the LD50 was 362 mg/kg. For the compound `NC(=O)Nc1cccc2c3c([nH]c12)CCCC3`, the LD50 is 2770 mg/kg. Regarding `CCCCOC(=S)S`, the LD50 is 456 mg/kg. With `CSC(=S)N(C)C`, the LD50 was 62 mg/kg. As for `CC(C)(C)C(=O)OCOC(=O)[C@@H]1N2C(=O)[C@@H](N=CN3CCCCCC3)[C@H]2SC1(C)C`, the LD50 was 9500 mg/kg. On to `CCc1cc2c(s1)N(C)C(=O)CN=C2c1ccccc1Cl`, for which the LD50 is 1460 mg/kg. On to `O=C1CC(c2cccc(Br)c2)C(=O)N1` (stereo unspecified), for which the median lethal dose (LD50) is 1750 mg/kg. For `CC(C)C(=O)OCc1ccccc1`, the LD50 is 2850 mg/kg. For `CCCC1C(=O)N(c2ccccc2)N(c2ccccc2)C1=O`, the LD50 is 529 mg/kg. Regarding `C=CCn1c(C)c(N(C)C)c(=O)n(-c2ccccc2)c1=O`, the LD50 is 2400 mg/kg.

Consider `CC1OC1C` (stereo unspecified), for which the LD50 was 2150 mg/kg.

For `CN(C1CCCCC1)C1CCCCC1`, the LD50 is 446 mg/kg.

For `C#CC(O)C=CC` (stereo unspecified), the LD50 is 34 mg/kg.

On to `CCC/C=C/CO`, for which the LD50 is 3500 mg/kg.

On to `CC1(C)C(C(=O)OCc2coc(Cc3ccccc3)c2)C1(C)C`, for which the LD50 is 141 mg/kg. In the case of `COP(=O)(OC)OC(=C(Cl)Cl)c1ccc(Cl)cc1Cl`, the LD50 was 109 mg/kg.

As for `O=C1CCCCCCCCCCCN1`, the 50% lethal dose (LD50) is 2330 mg/kg.

Consider `C=CC(=O)OCCN=C=O`, for which the LD50 is 200 mg/kg.

For `CCCCNC(C)c1ccccc1` (stereo unspecified), the LD50 is 360 mg/kg. Consider `CCOP(=O)(OCC)Oc1ccc([N+](=O)[O-])c(Cl)c1`, for which the LD50 is 5 mg/kg. Consider `COP(=S)(OC)SC`, for which the LD50 was 15 mg/kg. `CC(C)OC(=O)C=CC(=O)OC(C)C`: the 50% lethal dose (LD50) is 2140 mg/kg and 3250 mg/kg. As for `CC(=NOC(=O)N(C)SSN(C)C(=O)ON=C(C)SCCC#N)SCCC#N`, the LD50 is 80 mg/kg. Consider `OC1(c2cccc(Cl)c2)c2ccccc2C2=NCCN21` (stereo unspecified), for which the LD50 is 200 mg/kg. For `CCC(CC)CO`, the LD50 was 1850 mg/kg. For the compound `CC=Cc1cc(OC)c(OC)cc1OC`, the LD50 is 1010 mg/kg. Regarding `OCCN(CCO)c1ccccc1`, the LD50 is 980 mg/kg. Regarding `CC1(C)CO1`, the LD50 is 3890 mg/kg. Take `CC(CC(=O)O)CC(C)(C)C` (stereo unspecified): the LD50 is 1160 mg/kg. With `NCCCC[C@H](N)C(=O)O`, the LD50 is 11400 mg/kg and 10000 mg/kg. In the case of `CNC(=O)Oc1ccc(C)c(C)c1`, the LD50 was 290 mg/kg. In the case of `C=CC(=O)OCCOCC`, the LD50 is 1070 mg/kg. For `CC(C)COC(=O)C(C)Oc1ccc(Oc2ccc(Cl)cc2)cc1` (stereo unspecified), the LD50 was 723 mg/kg. Turning to `CC1(C(=O)O)C2CCC(O2)C1C(=O)O` (stereo unspecified), the LD50 was 50 mg/kg. For `CCNCC`, the LD50 was 9900 mg/kg. With `COc1cc(C=CC(=O)N2CCN(CC(=O)NC(C)C)CC2)cc(OC)c1OC`, the LD50 was 1300 mg/kg.

`CN(C)CCCSc1ccccc1NC(=O)C=Cc1ccccc1`: the LD50 was 1500 mg/kg.

As for `Cc1ccc(C)[nH]1`, the LD50 is 59 mg/kg.

As to `NCCCC1(CCCN)c2ccccc2-c2ccccc21`, the LD50 was 620 mg/kg.

As a reminder, the LD50 is the dose expected to kill half of the subjects tested.
